According to ChEMBL document CHEMBL1201862, “PubChem BioAssay data set” (2004):
“And” between values parts separate entries of the source, which are not always exact repeats. Equal entries are not always repeated.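 All cell lines were grown in 96-well plates and treated with compound for 48 hours. The concentration for 50% growth inhibition is given as GI50.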 The source made the active and inactive calls. Cut-off read from the data, not from the text of the source: active = GI50 up to about 1.1 µM and inactive = higher.

Assays:
Assay in all cases: NCI anticancer screen, dose series, 48 h
A498 = system: A498
A549 = system: A549
EKVX = system: EKVX
IGROV-1 = system: IGROV-1
K562 = system: K562
LOX IMVI = system: LOX IMVI
M14 = system: M14
MOLT-4 = system: MOLT-4
NCI-H226 = system: NCI-H226
OVCAR-3 = system: OVCAR-3
SF-539 = system: SF-539
SK-MEL-5 = system: SK-MEL-5
SK-OV-3 = system: SK-OV-3
SNB-19 = system: SNB-19
UACC-62 = system: UACC-62

Measured: GI50

O=c1c2ccccc2c(=O)n2n1CC=CC2
inactive: A498 > 100 µM | A549 > 100 µM | EKVX > 100 µM | IGROV-1 > 100 µM | K562 > 100 µM | LOX IMVI > 100 µM | M14 > 100 µM | MOLT-4 > 100 µM | NCI-H226 > 100 µM | OVCAR-3 > 100 µM | SF-539 > 100 µM | SK-MEL-5 > 100 µM | SK-OV-3 > 100 µM | SNB-19 > 100 µM | UACC-62 > 100 µM

CCCCCCC(C)CCCCCCCCCCC(=O)O (configuration not stated)
inactive: A498 > 100 µM | A549 > 100 µM | EKVX > 100 µM | IGROV-1 > 100 µM | K562 > 100 µM | LOX IMVI > 100 µM | M14 > 100 µM | MOLT-4 > 100 µM | NCI-H226 > 100 µM | OVCAR-3 > 100 µM | SF-539 > 100 µM | SK-MEL-5 > 100 µM | SK-OV-3 > 100 µM | SNB-19 > 100 µM | UACC-62 > 100 µM

Cc1ccccc1NC(=O)CC1C(=O)Nc2ccccc2[S+]1[O-] (configuration not stated)
inactive: A498 > 100 µM | A549 > 100 µM | EKVX > 100 µM | IGROV-1 88.1 µM | K562 > 100 µM | LOX IMVI > 100 µM | M14 > 100 µM | MOLT-4 > 100 µM | NCI-H226 > 100 µM | OVCAR-3 > 100 µM | SF-539 36.1 µM | SK-MEL-5 > 100 µM | SNB-19 > 100 µM | UACC-62 > 100 µM

COC(=O)[C@@H]1[C@H](O)[C@H](C)[C@H](O)[C@@](C)(O)/C=C\C=C(\C)C(=O)Nc2c(C)c(OC(C)=O)c3c(c2O)C(=O)C(C)=C2OCOC(=C23)/C(C)=C/[C@@](C)(O)[C@H](O)[C@@H](C)[C@H]1OC(C)=O
inactive: A498 > 66.8 µM | A549 43.3 µM | EKVX 78.2 µM | IGROV-1 > 100 µM and 53 µM | K562 23.4 µM | LOX IMVI 26.8 µM | MOLT-4 27.7 µM and 61.7 µM | NCI-H226 > 100 µM and 94.2 µM | OVCAR-3 43.1 µM and 32 µM | SF-539 > 100 µM and 50.7 µM | SK-MEL-5 24.5 µM | SK-OV-3 82.2 µM | SNB-19 > 100 µM and 91.4 µM | UACC-62 41.3 µM

COc1cc(/C=C/c2cccnc2)cc(OC)c1OC
inactive: A498 > 100 µM | A549 > 100 µM | EKVX 66.1 µM | IGROV-1 > 100 µM | K562 > 100 µM | LOX IMVI > 100 µM | M14 > 100 µM | MOLT-4 > 100 µM | NCI-H226 > 100 µM | OVCAR-3 > 100 µM | SF-539 > 100 µM | SK-MEL-5 47.5 µM | SNB-19 > 100 µM | UACC-62 81.1 µM
